# Reference: patent US6740642B2, “Macrolides with antibacterial activity” (BAsilea Parmaceutica AG, priority 2000, dated 2004)
# Legend:
# Assay in all cases: MIC, standard microdilution
# S. aureus 1086 = format: cell-based, Staphylococcus aureus; conditions: for MIC: Staphylococcus aureus, read-out: minimum inhibitory concentration (MIC)
# Source text: (§1) The antibacterial activities of the compounds have been determined by standard microdilution technique (National Committee for Clinical Laboratory Standards. 1997. Methods for dilution antimicrobial susceptibility tests for bacteria that grow aerobically, 4th edition. Approved standard M7-A4. National Committee for Clinical Laboratory Standards, Wayne, Pa.).
# S. aureus 745 = format: cell-based, Staphylococcus aureus; conditions: for MIC: Staphylococcus aureus, read-out: minimum inhibitory concentration (MIC)
# Source text: as §1
# S. aureus ATCC29213 = format: cell-based, Staphylococcus aureus; conditions: for MIC: Staphylococcus aureus, read-out: minimum inhibitory concentration (MIC)
# Source text: as §1
# E. coli ATCC25922 = format: cell-based; conditions: for MIC: Escherichia coli, read-out: minimum inhibitory concentration (MIC)
# Source text: as §1
# [1] = tested on: P. aeruginosa ATCC27853 (+Ery. 32 μg/ml); format: cell-based
# Source text: as §1
# St. pneumoniae 1/1 = format: cell-based, Streptococcus pneumoniae; conditions: for MIC: Streptococcus pneumoniae, read-out: minimum inhibitory concentration (MIC)
# Source text: as §1
# St. pneumoniae 1/4 = format: cell-based, Streptococcus pneumoniae; conditions: for MIC: Streptococcus pneumoniae, read-out: minimum inhibitory concentration (MIC)
# Source text: as §1
# St. pneumoniae 12288 = format: cell-based, Streptococcus pneumoniae; conditions: for MIC: Streptococcus pneumoniae, read-out: minimum inhibitory concentration (MIC)
# Source text: as §1
# St. pneumoniae SL199T = format: cell-based, Streptococcus pneumoniae; conditions: for MIC: Streptococcus pneumoniae, read-out: minimum inhibitory concentration (MIC)
# Source text: as §1
Compound,MIC (S. aureus 1086) [mg/L],MIC (S. aureus 745) [mg/L],MIC (S. aureus ATCC29213) [mg/L],MIC (E. coli ATCC25922) [mg/L],minimum inhibitory concentration (MIC) [1] [mg/L],MIC (St. pneumoniae 1/1) [mg/L],MIC (St. pneumoniae 1/4) [mg/L],MIC (St. pneumoniae 12288) [mg/L],MIC (St. pneumoniae SL199T) [mg/L],minimum inhibitory concentration (MIC) (S. aureus 1086) [mg/L],minimum inhibitory concentration (MIC) (S. aureus 745) [mg/L],minimum inhibitory concentration (MIC) (S. aureus ATCC29213) [mg/L],minimum inhibitory concentration (MIC) (E. coli ATCC25922) [mg/L],minimum inhibitory concentration (MIC) (St. pneumoniae 1/1),minimum inhibitory concentration (MIC) (St. pneumoniae 1/4),minimum inhibitory concentration (MIC) (St. pneumoniae 12288) [mg/L],minimum inhibitory concentration (MIC) (St. pneumoniae SL199T) [mg/L]
"CC[C@H]1OC(=O)[C@H](C)C(=O)[C@H](C)[C@@H](O[C@@H]2O[C@H](C)C[C@H](N(C)C)[C@H]2O)[C@](C)(OC)C[C@@H](C)C(=O)[C@H](C)[C@H]2[C@H](SCCn3cnc(-c4cccnc4)c3)C(=O)O[C@@]21C [Compound I-20, (3S,3aR,4R,6R,8R,9R,10R,12R,15R,15aS)-15-Ethyloctahydro-8-methoxy-4,6,8,10,12,15a-hexamethyl-3-[[2-[4-(3-pyridinyl)-1H-imidazol-1-yl]ethyl]thio]-9-[[3,4,6-trideoxy-3-(dimethylamino)-β-D-xylo-hexopyranosyl]oxy]-2H-furo[2,3-c]oxacyclotetradecin-2,5,11,13(3H,6H,12H)-tetrone]",0.25,> 16,0.25,> 16,>16,≤ 0.12,≤ 0.12,2,2,–,–,–,–,–,–,–,–
"CC[C@H]1OC(=O)[C@H](C)C(=O)[C@H](C)[C@@H](O[C@@H]2O[C@H](C)C[C@H](N(C)C)[C@H]2O)[C@](C)(OC)C[C@@H](C)C(=O)[C@H](C)[C@H]2[C@H](SCc3ccccc3)C(=O)O[C@@]21C [Compound I-4, (3S,3aR,4R,6R,8R,9R,10R,12R,15R,15aS)-15-Ethyloctahydro-8-methoxy-4,6,8,10,12,15a-hexamethyl-3-[(phenylmethyl)thio]-9-[[3,4,6-trideoxy-3-(dimethylamino)-β-D-xylo-hexopyranosyl]oxy]-2H-furo[2,3-c]oxacyclotetradecin-2,5,11,13(3H,6H,12H)-tetrone]",1,> 16,1,> 16,>16,≤ 0.5,8,16,16,–,–,–,–,–,–,–,–
CC[C@H]1OC(=O)[C@H](C)C(=O)[C@H](C)[C@@H](O[C@@H]2O[C@H](C)C[C@H](N(C)C)[C@H]2O)[C@](C)(OC)C[C@@H](C)C(=O)[C@H](C)[C@H]2[C@H](Sc3ccc(OC)c(OC)c3)C(=O)O[C@@]21C [Compound I-12],–,–,–,–,>16,–,–,–,–,0.5,>16,0.5,>16,<=0.5 μg/ml,1 mg/L,16,8
"CC[C@H]1OC(=O)[C@H](C)C(=O)[C@H](C)[C@@H](O[C@@H]2O[C@H](C)C[C@H](N(C)C)[C@H]2O)[C@](C)(OC)C[C@@H](C)C(=O)[C@H](C)[C@H]2[C@H](SCCn3cnc(-c4cccnc4)n3)C(=O)O[C@@]21C [Compound I-17, (3S,3aR,4R,6R,8R,9R,10R,12R,15R,15aS)-15-Ethyloctahydro-8-methoxy-4,6,8,10,12,15a-hexamethyl-3-[[2-[3-(3-pyridinyl)-1H-1,2,4-triazol-1-yl]ethyl]thio]-9-[[3,4,6-trideoxy-3-(dimethylamino)-β-D-xylo-hexopyranosyl]oxy]-2H-furo[2,3-c]oxacyclotetradecin-2,5,11,13(3H,6H,12H)-tetrone]",≤ 0.12,> 16,≤ 0.12,> 16,>16,≤ 0.12,≤ 0.12,–,1,–,–,–,–,–,–,–,–
"CC[C@H]1OC(=O)[C@H](C)C(=O)[C@H](C)[C@@H](O[C@@H]2O[C@H](C)C[C@H](N(C)C)[C@H]2O)[C@](C)(OC)C[C@@H](C)C(=O)[C@H](C)[C@H]2[C@H](SCCn3ccc(-c4ccncc4)n3)C(=O)O[C@@]21C [Compound I-19, (3S,3aR,4R,6R,8R,9R,10R,12R,15R,15aS)-15-Ethyloctahydro-8-methoxy-4,6,8,10,12,15a-hexamethyl-3-[[2-[3-(4-pyridinyl)-1H-pyrazol-1-yl]ethyl]thio]-9-[[3,4,6-trideoxy-3-(dimethylamino)-β-D-xylo-hexopyranosyl]oxy]-2H-furo[2,3-c]oxacyclotetradecin-2,5,11,13(3H,6H,12H)-tetrone]",≤ 0.12,> 16,≤ 0.12,> 16,>16,≤ 0.12,≤ 0.12,4,1,–,–,–,–,–,–,–,–
"CC[C@H]1OC(=O)[C@H](C)C(=O)[C@H](C)[C@@H](O[C@@H]2O[C@H](C)C[C@H](N(C)C)[C@H]2O)[C@](C)(OC)C[C@@H](C)C(=O)[C@H](C)[C@H]2[C@H](SC)C(=O)O[C@@]21C [Compound I-5, (3S,3aR,4R,6R,8R,9R,10R,12R,15R,15aS)-15-Ethyloctahydro-8-methoxy-4,6,8,10,12,15a-hexamethyl-3-[methylthio]-9-[[3,4,6-trideoxy-3-(dimethylamino)-β-D-xylo-hexopyranosyl]oxy]-2H-furo[2,3-c]oxacydotetradecin-2,5,11,13(3H,6H,12H)-tetrone]",–,–,–,–,>16,–,–,–,–,0.5,>16,0.5,>16,<=0.5 μg/ml,32 mg/L,>32,16

# Continued, values first:
MIC (S. aureus 1086) [mg/L],MIC (S. aureus 745) [mg/L],MIC (S. aureus ATCC29213) [mg/L],MIC (E. coli ATCC25922) [mg/L],minimum inhibitory concentration (MIC) [1] [mg/L],MIC (St. pneumoniae 1/1) [mg/L],MIC (St. pneumoniae 1/4) [mg/L],MIC (St. pneumoniae 12288) [mg/L],MIC (St. pneumoniae SL199T) [mg/L],minimum inhibitory concentration (MIC) (S. aureus 1086) [mg/L],minimum inhibitory concentration (MIC) (S. aureus 745) [mg/L],minimum inhibitory concentration (MIC) (S. aureus ATCC29213) [mg/L],minimum inhibitory concentration (MIC) (E. coli ATCC25922) [mg/L],minimum inhibitory concentration (MIC) (St. pneumoniae 1/1),minimum inhibitory concentration (MIC) (St. pneumoniae 1/4),minimum inhibitory concentration (MIC) (St. pneumoniae 12288) [mg/L],minimum inhibitory concentration (MIC) (St. pneumoniae SL199T) [mg/L],Compound
0.25,> 16,0.25,> 16,>16,≤ 0.12,> 16,> 16,8,–,–,–,–,–,–,–,–,"CC[C@H]1OC(=O)[C@H](C)C(=O)[C@H](C)[C@@H](O[C@@H]2O[C@H](C)C[C@H](N(C)C)[C@H]2O)[C@](C)(OC)C[C@@H](C)C(=O)[C@H](C)[C@H]2[C@H](SCCn3cncn3)C(=O)O[C@@]21C [Compound I-21, (3S,3aR,4R,6R,8R,9R,10R,12R,15R,15aS)-15-Ethyloctahydro-8-methoxy-4,6,8,10,12,15a-hexamethyl-3-[[2-[1H-1,2,4-triazol-1-yl]ethyl]thio]-9-[[3,4,6-trideoxy-3-(dimethylamino)-β-D-xylo-hexopyranosyl]oxy]-2H-furo[2,3-c]oxacyclotetradecin-2,5,11,13(3H,6H,12H)-tetrone]"
0.5,> 16,0.5,> 16,>16,≤ 0.12,16,> 16,> 16,–,–,–,–,–,–,–,–,"CC[C@H]1OC(=O)[C@H](C)C(=O)[C@H](C)[C@@H](O[C@@H]2O[C@H](C)C[C@H](N(C)C)[C@H]2O)[C@](C)(OC)C[C@@H](C)C(=O)[C@H](C)[C@H]2CC(=O)O[C@@]21C [Compound I-25, (3aR,4R,6R,8R,9R,10R,12R,15R,15aS)-15-Ethyloctahydro-8-methoxy-4,6,8,10,12,15a-hexamethyl-9-[[3,4,6-trideoxy-3-(dimethylamino)-β-D-xylo-hexopyranosyl]oxy]-2H-furo[2,3-c]oxacyclotetradecin-2,5,11,13 (3H,6H,12H)-tetrone]"
–,–,–,–,>16,–,–,–,–,1,>16,0.25,>16,<=0.25 μg/ml,<=0.25 μg/ml,2,1,"CC[C@H]1OC(=O)[C@H](C)C(=O)[C@H](C)[C@@H](O[C@@H]2O[C@H](C)C[C@H](N(C)C)[C@H]2O)[C@](C)(OC)C[C@@H](C)C(=O)[C@H](C)[C@H]2[C@H](SCCn3cnc4c(N(C)C)ncnc43)C(=O)O[C@@]21C [Compound I-27, (3S,3aR,4R,6R,8R,9R,10R,12R,15R,15aS)-3-[[2-[6-N,N-Dimethylamino-9H-purine-9-yl]ethyl]thio]-15-ethyloctahydro-8-methoxy-4,6,8,10,12,15a-hexamethyl-9-[[3,4,6-trideoxy-3-(dimethylamino)-β-D-xylo-hexopyranosyl]oxy]-2H-furo[2,3-c]oxacyclotetradecin-2,5,11,13(3H,6H,12H)-tetrone]"
2,> 16,2,> 16,>16,≤ 0.12,≤ 4,> 16,> 16,–,–,–,–,–,–,–,–,"CO[C@@H]1[C@@H](O[C@@H]2O[C@H](C)[C@@H](O[C@H]3C[C@@](C)(O)[C@@H](OC(=O)CC(C)C)[C@H](C)O3)[C@H](N(C)C)[C@H]2O)[C@@H](CC=O)C[C@@H](C)[C@@H](O)/C=C/C=C/C[C@@H](C)OC(=O)C[C@H]1OC(C)=O [Josamycin, reference compound]"
